Measured values from patent US11377440B2, “Modulators of stimulator of interferon genes (STING)” (GlaxoSmithKline Intellectual Property Development Limited, priority 2017, dated 2022).

System: T1, STING
T1 construct: endogenous in cells; host or cells: THP-1
Experiment: Functional assay IV (THP-1 antagonist assay), IFNβ secretion after Bacmam virus
Format: cell-based, human
Conditions: THP-1 cells, Bacmam virus MOI of 40 pfu/cell; upper limit of the assay 9.1

With `CCn1nc(C)cc1C(=O)/N=c1\n(C)c2cc(C(N)=O)ccc2n1CCCCCn1/c(=N/C(=O)c2cc(C)nn2CC)n(C)c2cc(C(N)=O)ccc21` [Example 24] the “THP-1 antagonist assay (pIC50)” value was 4.6.
